These are literature values, as cited in patent US9029312B2, “Compositions for cleaning applicators for hair removal compositions” (priority 2012, dated 2015).

The conditions of data set [1]: Bhargava & Leonard 1996.

In the case of `Oc1cc(Cl)ccc1Oc1ccc(Cl)cc1Cl` [Triclosan, 5-Chloro-2-(2,4-dichlorophenoxy) phenol], the “solubility in mineral oil” value is listed as “relatively high solubility in mineral oil”. In addition, in data set [1], the “carcinogenic, mutagenic or teratogenic effects” value is given as “not found to have any carcinogenic, mutagenic or teratogenic effects”; the “toxicity to humans and other mammals” value is reported as “relatively non-toxic”.
